In patent publication EP1148124A1 (priority 1999, dated 2000):
Like-named read-outs stand apart in the source and are kept apart here.

Experiments:
[1] = test system: aryl hydrocarbon receptor; experiment: Luciferase assay for clone selection (Example 2), firefly luciferase ligand responsive reporter gene
[2] = test system: Ah receptor; experiment: Reporter assay (No. 2), ligand responsive reporter gene (firefly luciferase, pGV-Ya-XREx5), clone of Example 3; type: cell-based, mouse
[3] = Reporter assay (No. 2), cell number reporter gene (sea pansy luciferase, pRL-TK), clone of Example 3; type: cell-based; details: mouse, hepa1c1c7 cells
Procedure: For the measured values of the amount of expression of the cell number reporter gene, a ratio is determined of the measured value in the test substance added group to the measured value in the only solvent added group (control group). When the ratio is, for example, in the range of 0.8 to 1.2, the measured value of the amount of expression of the ligand responsive reporter gene in the test substance added group is selected for evaluating the agonist or antagonist activity of the test substance against the ability of a ligand responsive transcriptional regulatory factor to promote transcription. When the ratio takes a small value such as smaller than 0.8, for example, it is possible that the test substance has cytotoxicity. In contrast, when the ratio takes a large value such as greater than 1.2, for example, it is possible that the test substance has activity against the transcriptional regulatory system of a gene without mediation of a ligand responsive transcriptional regulatory factor. However, the range of this ratio suitable for selecting the measured value of the amount of expression of the […] reporter gene may vary depending on certain properties of the present cells used and the conditions of measurement, and it is not limited to the above examples of numerical values.
Separately, the ligand responsive reporter gene containing plasmid pGV-Ya-XREx5 constructed in Example 1 was digested with Bam HI. Further, the cell number reporter gene containing plasmid pRL-TK (marketed by Toyo Ink) was digested with Bam HI, and the neomycin resistance (aminoglycoside phosphotransferase) gene containing plasmid pRc/RSV (available from INVITROGEN) was digested with Hind III. These three digested plasmids, i.e., Bam HI digested pGV-Ya-XREx5 (5.6 µg), Bam HI digested pRL-TK (5.6 µg), and Hind III digested pRc/RSV (1 µg), were mixed with 600 µl of αMEM medium (mixture C), while 72 µl of lipofectin (available from GIBCO-BRL) was mixed with 600 µl of αMEM medium (mixture D). After being left at room temperature for 30 minutes, mixtures C and D were combined together and left at room temperature for 10 minutes. After the Hepalclc7 cells cultured overnight as described above were then washed once with αMEM medium, there was added a half volume of a solution prepared by adding and mixing additional 10.8 ml of αMEM medium into the above mixture (C + D). Culturing of the resulting mixture was carried out for 5 hours. The medium was then replaced with 10% serum containing αMEM medium, followed by further culturing for 2 days. Subsequently, the cells were scratched from the petri dishes and collected, and the collected cells were suspended in 10% serum containing αMEM medium to have the total volume of 100 ml. The resulting cell suspension was plated on 96-well plates at a ratio of 100 µl/well. After these plates were cultured overnight, a medium prepared by dissolving G418 in 10% serum containing αMEM medium to have a concentration of 3.2 mg/ml was added at a ratio of 100 µl/well (G418 final concentration 1.6 mg/ml). Culturing was further continued, during which the medium was replaced with 10% serum containing αMEM medium containing 800 µg/ml G418 at a rate of once per 4 to 5 days. The volume of the medium was set at 200 µl/well. […] To the first plate, only DMSO was added (solvent control), and to the second plate, 3-MC dissolved in DMSO was added so that the final concentration of 3-MC in the second plate came to 2 µm per well. The first and second plates were then cultured overnight. In this case, the DMSO or the solution of 3-MC in DMSO was added so that the final concentration of DMSO in each well came to 0.04%. The third plate was further cultured as the master plate. From each well of each plate, to which DMSO or 3-MC had been added, the medium was removed, and the wells were washed twice with PBS(-). […]

[4] = final conc. 1 nM, about 6 hours
[5] = final conc. 10 nM, about 6 hours
[6] = final conc. 100 nM, about 6 hours
[7] = final conc. 1000 nM, about 6 hours
[8] = final conc. 10000 nM, about 6 hours
[9] = final conc. 50000 nM, about 6 hours

Compound: Cc1ccc2cc3c(ccc4ccccc43)c3c2c1CC3 [3-MC, 3-methylcholanthrene]
- increase in the expression of the firefly luciferase gene by the addition of 3-MC [1]: about 10 times

Compound: c1ccc2c(c1)cc1ccc3cccc4ccc2c1c34 [Benzo[a]pyrene, benzo[a]pyrene]
- Amount of luminescence by firefly luciferase (from pGV-Ya-XREx5) Measured value [2, 4]: 0.414 x 10^2
- Amount of luminescence by firefly luciferase (from pGV-Ya-XREx5) Ratio ([2]; final conc. 1 nM, about 6 hours, ratio to 0 nM): 1.7
- Amount of luminescence by firefly luciferase (from pGV-Ya-XREx5) Measured value [2, 5]: 0.928 x 10^2
- Amount of luminescence by firefly luciferase (from pGV-Ya-XREx5) Ratio ([2]; final conc. 10 nM, about 6 hours, ratio to 0 nM): 3.7
- Amount of luminescence by firefly luciferase (from pGV-Ya-XREx5) Measured value [2, 6]: 1.72 x 10^2
- Amount of luminescence by firefly luciferase (from pGV-Ya-XREx5) Ratio ([2]; final conc. 100 nM, about 6 hours, ratio to 0 nM): 6.9
- Amount of luminescence by firefly luciferase (from pGV-Ya-XREx5) Measured value [2, 7]: 3.12 x 10^2
- Amount of luminescence by firefly luciferase (from pGV-Ya-XREx5) Ratio ([2]; final conc. 1000 nM, about 6 hours, ratio to 0 nM): 12
- Amount of luminescence by firefly luciferase (from pGV-Ya-XREx5) Measured value [2, 8]: 4.54 x 10^2
- Amount of luminescence by firefly luciferase (from pGV-Ya-XREx5) Ratio ([2]; final conc. 10000 nM, about 6 hours, ratio to 0 nM): 18
- Amount of luminescence by firefly luciferase (from pGV-Ya-XREx5) Measured value [2, 9]: 5.76 x 10^2
- Amount of luminescence by firefly luciferase (from pGV-Ya-XREx5) Ratio ([2]; final conc. 50000 nM, about 6 hours, ratio to 0 nM): 23
- viability at 6 h, 0.001 µM ([3]; final conc. 1 nM, about 6 hours, ratio to 0 nM, read-out: Amount of luminescence by sea pansy luciferase (from pRL-TK) Ratio): 90%
- viability at 6 h, 0.01 µM ([3]; final conc. 10 nM, about 6 hours, ratio to 0 nM, read-out: Amount of luminescence by sea pansy luciferase (from pRL-TK) Ratio): 90%
- viability at 6 h, 0.1 µM ([3]; final conc. 100 nM, about 6 hours, ratio to 0 nM, read-out: Amount of luminescence by sea pansy luciferase (from pRL-TK) Ratio): 80%
- viability at 6 h, 1 µM ([3]; final conc. 1000 nM, about 6 hours, ratio to 0 nM, read-out: Amount of luminescence by sea pansy luciferase (from pRL-TK) Ratio): 90%
- viability at 6 h, 10 µM ([3]; final conc. 10000 nM, about 6 hours, ratio to 0 nM, read-out: Amount of luminescence by sea pansy luciferase (from pRL-TK) Ratio): 80%
- viability at 6 h, 50 µM ([3]; final conc. 50000 nM, about 6 hours, ratio to 0 nM, read-out: Amount of luminescence by sea pansy luciferase (from pRL-TK) Ratio): 80%

Compound: C[C@@H]1C[C@H]2[C@@H]3CCC4=CC(=O)C=C[C@]4(C)[C@@]3(F)[C@@H](O)C[C@]2(C)[C@@]1(O)C(=O)CO [Dexamethasone, dexamethasone]
- Amount of luminescence by firefly luciferase (from pGV-Ya-XREx5) Measured value [2, 4]: 3.71 x 10^2
- Amount of luminescence by firefly luciferase (from pGV-Ya-XREx5) Measured value [2, 5]: 3.54 x 10^2
- Amount of luminescence by firefly luciferase (from pGV-Ya-XREx5) Measured value [2, 6]: 3.39 x 10^2
- Amount of luminescence by firefly luciferase (from pGV-Ya-XREx5) Measured value [2, 7]: 3.22 x 10^2
- Amount of luminescence by firefly luciferase (from pGV-Ya-XREx5) Measured value [2, 8]: 3.53 x 10^2
- Amount of luminescence by firefly luciferase (from pGV-Ya-XREx5) Measured value [2, 9]: 3.73 x 10^2
- Amount of luminescence by firefly luciferase (from pGV-Ya-XREx5) Ratio ([2]; hepa1c1c7 cells, 6 h, 0.001 µM): 1.3
- Amount of luminescence by firefly luciferase (from pGV-Ya-XREx5) Ratio ([2]; hepa1c1c7 cells, 6 h, 0.01 µM): 1.2
- Amount of luminescence by firefly luciferase (from pGV-Ya-XREx5) Ratio ([2]; hepa1c1c7 cells, 6 h, 0.1 µM): 1.2
- Amount of luminescence by firefly luciferase (from pGV-Ya-XREx5) Ratio ([2]; hepa1c1c7 cells, 6 h, 1 µM): 1.1
- Amount of luminescence by firefly luciferase (from pGV-Ya-XREx5) Ratio ([2]; hepa1c1c7 cells, 6 h, 10 µM): 1.2
- Amount of luminescence by firefly luciferase (from pGV-Ya-XREx5) Ratio ([2]; hepa1c1c7 cells, 6 h, 50 µM): 1.3
- viability at 6 h, 0.001 µM [3]: 100%
- viability at 6 h, 0.01 µM [3]: 100%
- viability at 6 h, 0.1 µM [3]: 90%
- viability at 6 h, 1 µM [3]: 80%
- viability at 6 h, 10 µM [3]: 100%
- viability at 6 h, 50 µM [3]: 110%
